Assays:
[1] = Cytotoxicity against wild type human THP1-Dual cells assessed as cell viability incubated for 24 hrs by CellTiter 96 aqueous one solution assay relative to control; assay type: toxicity, cell-based; parameters: concentration or dose not given beside the values; settings: read-out: Activity
[2] = Cytotoxicity against human THP1-Dual KO-STING cells assessed as cell viability incubated for 24 hrs by CellTiter 96 aqueous one solution assay relative to control; assay type: toxicity, cell-based; parameters: concentration or dose not given beside the values; settings: read-out: Activity
THP1-Dual = experiment: Cytotoxicity against human THP1-Dual cells assessed as reduction in cell viability at 0 to 50 uM incubated for 24 hrs by CellTiter 96 aqueous one solution assay; assay type: toxicity, cell-based; settings: dose 0-50 µM
RAW264.7 = experiment: Cytotoxicity against mouse RAW264.7 cells assessed as reduction in cell viability at 0 to 80 uM incubated for 24 hrs by CellTiter 96 aqueous one solution assay; assay type: toxicity, cell-based; settings: raw264.7, 24 h, dose 0-80 µM
Cytochrome P450 1A2 = target: T1, Cytochrome P450 1A2 (Homo sapiens, UniProt P05177); experiment: Inhibition of CYP1A2 in human liver microsomes using phenacetin as substrate preincubated for 5 min followed by substrate and NADPH addition and measured after 20 mins by LC-MS/MS analysis; assay type: ADME, Microsome
T1 sequence (P05177 whole entry): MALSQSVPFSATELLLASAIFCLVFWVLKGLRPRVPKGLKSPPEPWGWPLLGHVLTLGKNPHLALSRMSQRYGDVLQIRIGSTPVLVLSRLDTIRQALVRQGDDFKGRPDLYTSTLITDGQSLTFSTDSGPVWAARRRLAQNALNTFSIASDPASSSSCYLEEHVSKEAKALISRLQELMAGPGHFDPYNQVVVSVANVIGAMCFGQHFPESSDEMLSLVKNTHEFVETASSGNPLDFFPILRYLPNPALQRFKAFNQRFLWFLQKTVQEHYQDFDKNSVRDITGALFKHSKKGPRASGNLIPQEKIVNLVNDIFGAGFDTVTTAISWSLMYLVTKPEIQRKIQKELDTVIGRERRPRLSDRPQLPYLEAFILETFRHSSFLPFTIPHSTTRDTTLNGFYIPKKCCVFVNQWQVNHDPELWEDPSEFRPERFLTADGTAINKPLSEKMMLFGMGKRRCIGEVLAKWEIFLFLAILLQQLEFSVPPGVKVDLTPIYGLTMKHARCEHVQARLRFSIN

Cytochrome P450 2C9 = Cytochrome P450 2C9 (Homo sapiens, UniProt P11712); experiment: Inhibition of CYP2C9 in human liver microsomes using tolbutamide as substrate preincubated for 5 min followed by substrate and NADPH addition and measured after 20 mins by LC-MS/MS analysis; assay type: ADME, Microsome
Cytochrome P450 2C9, sequence (P11712 whole entry): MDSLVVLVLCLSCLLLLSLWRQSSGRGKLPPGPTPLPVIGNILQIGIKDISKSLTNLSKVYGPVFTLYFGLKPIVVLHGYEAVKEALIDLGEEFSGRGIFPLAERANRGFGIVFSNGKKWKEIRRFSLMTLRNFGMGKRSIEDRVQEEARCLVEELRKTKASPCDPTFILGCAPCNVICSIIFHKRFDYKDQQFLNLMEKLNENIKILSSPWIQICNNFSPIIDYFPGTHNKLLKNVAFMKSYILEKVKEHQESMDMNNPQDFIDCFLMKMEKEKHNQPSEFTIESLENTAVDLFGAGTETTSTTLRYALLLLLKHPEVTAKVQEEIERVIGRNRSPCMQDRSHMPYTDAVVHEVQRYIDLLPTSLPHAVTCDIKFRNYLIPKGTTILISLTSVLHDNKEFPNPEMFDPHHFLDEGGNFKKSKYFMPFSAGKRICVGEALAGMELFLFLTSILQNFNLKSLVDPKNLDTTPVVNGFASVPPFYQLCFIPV

Cytochrome P450 2C19 = Cytochrome P450 2C19 (Homo sapiens, UniProt P33261); experiment: Inhibition of CYP2C19 in human liver microsomes using S-Mephenytoin as substrate preincubated for 5 min followed by substrate and NADPH addition and measured after 20 mins by LC-MS/MS analysis; assay type: ADME, Microsome
Cytochrome P450 2C19, sequence (P33261 whole entry): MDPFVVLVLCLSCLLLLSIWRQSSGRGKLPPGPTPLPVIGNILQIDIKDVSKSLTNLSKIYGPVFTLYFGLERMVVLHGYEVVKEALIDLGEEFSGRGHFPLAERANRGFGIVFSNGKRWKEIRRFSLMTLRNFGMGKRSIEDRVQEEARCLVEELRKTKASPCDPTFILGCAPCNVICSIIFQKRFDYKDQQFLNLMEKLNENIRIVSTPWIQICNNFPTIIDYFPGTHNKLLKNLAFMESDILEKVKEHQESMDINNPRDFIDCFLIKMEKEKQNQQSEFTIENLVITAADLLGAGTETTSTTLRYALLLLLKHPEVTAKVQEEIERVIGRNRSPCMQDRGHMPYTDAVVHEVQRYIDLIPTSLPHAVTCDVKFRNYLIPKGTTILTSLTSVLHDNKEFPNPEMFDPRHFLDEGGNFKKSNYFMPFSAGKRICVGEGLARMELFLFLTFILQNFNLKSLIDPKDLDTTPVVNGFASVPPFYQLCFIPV

Cytochrome P450 2D6 = Cytochrome P450 2D6 (Homo sapiens, UniProt P10635); experiment: Inhibition of CYP2D6 in human liver microsomes using dextromethorphan as substrate preincubated for 5 min followed by substrate and NADPH addition and measured after 20 mins by LC-MS/MS analysis; assay type: ADME, Microsome
Cytochrome P450 2D6, sequence (P10635 whole entry): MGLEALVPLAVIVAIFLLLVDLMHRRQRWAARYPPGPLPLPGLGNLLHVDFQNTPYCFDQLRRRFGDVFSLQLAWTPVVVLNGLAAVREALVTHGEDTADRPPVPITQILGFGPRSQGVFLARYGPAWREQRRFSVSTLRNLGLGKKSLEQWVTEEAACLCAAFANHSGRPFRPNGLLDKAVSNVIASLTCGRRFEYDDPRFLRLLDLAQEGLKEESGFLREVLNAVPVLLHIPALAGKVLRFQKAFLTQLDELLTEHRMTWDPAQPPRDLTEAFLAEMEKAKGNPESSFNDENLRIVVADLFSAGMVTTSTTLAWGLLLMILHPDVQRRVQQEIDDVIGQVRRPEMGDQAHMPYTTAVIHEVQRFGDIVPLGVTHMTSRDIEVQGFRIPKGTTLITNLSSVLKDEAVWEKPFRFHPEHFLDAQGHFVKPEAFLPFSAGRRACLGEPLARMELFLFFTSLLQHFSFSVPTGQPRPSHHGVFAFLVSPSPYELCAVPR

Cytochrome P450 3A4 = Cytochrome P450 3A4 (Homo sapiens, UniProt P08684); experiment: Inhibition of CYP3A4 in human liver microsomes using […] as substrate preincubated for 5 min followed by substrate and NADPH addition and measured after 20 mins by LC-MS/MS analysis; assay type: ADME, Microsome
Cytochrome P450 3A4, sequence (P08684 whole entry): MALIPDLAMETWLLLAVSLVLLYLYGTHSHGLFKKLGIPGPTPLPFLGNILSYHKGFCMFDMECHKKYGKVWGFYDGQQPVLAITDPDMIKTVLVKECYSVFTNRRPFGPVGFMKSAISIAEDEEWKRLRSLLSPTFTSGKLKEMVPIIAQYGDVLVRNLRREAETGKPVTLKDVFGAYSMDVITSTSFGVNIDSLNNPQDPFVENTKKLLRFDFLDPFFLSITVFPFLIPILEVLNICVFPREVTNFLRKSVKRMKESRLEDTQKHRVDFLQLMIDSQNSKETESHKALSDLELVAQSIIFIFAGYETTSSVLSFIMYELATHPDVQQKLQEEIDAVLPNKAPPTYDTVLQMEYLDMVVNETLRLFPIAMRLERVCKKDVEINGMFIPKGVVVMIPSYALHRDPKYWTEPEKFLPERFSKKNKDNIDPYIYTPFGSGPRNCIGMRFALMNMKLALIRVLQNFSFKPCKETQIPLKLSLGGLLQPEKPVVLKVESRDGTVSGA

[3] = target: Voltage-gated inwardly rectifying potassium channel KCNH2 (Homo sapiens, UniProt Q12809); experiment: Inhibition of hERG by non-electrophysiological analysis; assay type: toxicity
Voltage-gated inwardly rectifying potassium channel KCNH2, sequence (Q12809 whole entry): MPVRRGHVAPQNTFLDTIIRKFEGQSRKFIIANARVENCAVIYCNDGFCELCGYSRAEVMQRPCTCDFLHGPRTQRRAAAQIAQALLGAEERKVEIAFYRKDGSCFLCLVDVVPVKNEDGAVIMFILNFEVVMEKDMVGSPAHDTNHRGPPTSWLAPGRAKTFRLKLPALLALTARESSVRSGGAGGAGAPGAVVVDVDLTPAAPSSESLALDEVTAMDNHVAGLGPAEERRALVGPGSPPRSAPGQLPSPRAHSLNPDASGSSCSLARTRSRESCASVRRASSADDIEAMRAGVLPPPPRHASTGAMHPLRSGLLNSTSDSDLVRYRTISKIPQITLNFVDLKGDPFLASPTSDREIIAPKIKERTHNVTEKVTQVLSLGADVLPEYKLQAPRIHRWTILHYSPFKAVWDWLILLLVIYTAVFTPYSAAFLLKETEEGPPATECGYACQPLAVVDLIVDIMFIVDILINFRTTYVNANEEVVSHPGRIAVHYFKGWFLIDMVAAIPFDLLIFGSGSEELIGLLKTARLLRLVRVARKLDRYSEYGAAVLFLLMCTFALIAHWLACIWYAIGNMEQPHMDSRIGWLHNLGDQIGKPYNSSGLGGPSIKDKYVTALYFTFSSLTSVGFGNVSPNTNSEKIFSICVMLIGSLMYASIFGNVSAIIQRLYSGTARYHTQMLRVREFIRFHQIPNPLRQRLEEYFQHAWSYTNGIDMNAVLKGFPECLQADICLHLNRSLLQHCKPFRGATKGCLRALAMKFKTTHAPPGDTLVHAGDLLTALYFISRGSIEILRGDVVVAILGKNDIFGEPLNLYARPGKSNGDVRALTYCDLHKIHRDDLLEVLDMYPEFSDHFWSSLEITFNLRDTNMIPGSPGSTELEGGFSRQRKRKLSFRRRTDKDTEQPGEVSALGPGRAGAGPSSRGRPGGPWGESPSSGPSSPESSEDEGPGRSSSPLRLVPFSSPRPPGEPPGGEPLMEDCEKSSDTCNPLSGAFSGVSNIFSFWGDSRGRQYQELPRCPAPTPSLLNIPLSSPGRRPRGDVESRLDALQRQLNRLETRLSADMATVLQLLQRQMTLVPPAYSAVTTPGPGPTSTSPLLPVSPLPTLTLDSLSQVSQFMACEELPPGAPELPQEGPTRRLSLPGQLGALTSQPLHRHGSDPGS

[4] = Metabolic stability at phase I in mouse liver microsomes assessed as remaining activity at 1 uM incubated for 30 mins in presence of NADPH by LC-MS/MS analysis; assay type: ADME, Microsome; settings: read-out: Stability
[5] = Metabolic stability at phase I in human liver microsomes assessed as remaining activity at 1 uM incubated for 30 mins in presence of NADPH by LC-MS/MS analysis; assay type: ADME, Microsome; settings: read-out: Stability
[6] = Stability in mouse plasma assessed as remaining activity at 5 uM incubated for 4 hrs by LC-MS/MS analysis; assay type: ADME, cell-free; settings: read-out: Stability
[7] = Stability in human plasma assessed as remaining activity at 5 uM incubated for 4 hrs by LC-MS/MS analysis; assay type: ADME, cell-free; settings: read-out: Stability
[8] = Plasma protein binding in mouse; assay type: ADME, cell-free; settings: read-out: PPB (converted)
[9] = Plasma protein binding in human; assay type: ADME, cell-free; settings: read-out: PPB (converted)
[10] = Half life in ICR mouse at 5 mg/kg, iv by LC-MS/MS analysis; assay type: ADME, organism-based; settings: in vivo
[11] = Half life in ICR mouse at 20 mg/kg, po administered via oral gavage by LC-MS/MS analysis; assay type: ADME, organism-based; settings: in vivo
[12] = Tmax in ICR mouse at 20 mg/kg, po administered via oral gavage by LC-MS/MS analysis; assay type: ADME, organism-based; settings: in vivo
[13] = Cmax in ICR mouse at 20 mg/kg, po administered via oral gavage by LC-MS/MS analysis; assay type: ADME, organism-based; settings: in vivo
[14] = Volume of distribution at steady state in ICR mouse at 5 mg/kg, iv by LC-MS/MS analysis; assay type: ADME, organism-based; settings: in vivo, read-out: Vdss
[15] = Clearance in ICR mouse at 5 mg/kg, iv by LC-MS/MS analysis; assay type: ADME, organism-based; settings: in vivo
[16] = AUClast in ICR mouse at 5 mg/kg, iv by LC-MS/MS analysis; assay type: ADME, organism-based; settings: in vivo
[17] = AUClast in ICR mouse at 20 mg/kg, po administered via oral gavage by LC-MS/MS analysis; assay type: ADME, organism-based; settings: in vivo
[18] = AUC (0 to infinity) in ICR mouse at 5 mg/kg, iv by LC-MS/MS analysis; assay type: ADME, organism-based; settings: in vivo
[19] = AUC (0 to infinity) in ICR mouse at 20 mg/kg, po administered via oral gavage by LC-MS/MS analysis; assay type: ADME, organism-based; settings: in vivo
[20] = Oral bioavailability in ICR mouse at 20 mg/kg administered via oral gavage by LC-MS/MS analysis; assay type: ADME, organism-based; settings: in vivo
[21] = Toxicity in BALB/c mouse implanted with mouse 4T1 cells assessed as body weight loss at 16 mg/kg, po administrated every other day for 6 times and measured after 12 days; assay type: organism-based; settings: in vivo, 288 h, time 12 day
[22] = target: Stimulator of interferon genes protein (Homo sapiens, UniProt Q86WV6); experiment: Agonist activity at STING in wild type human THP1-Dual cells assessed as increase in IRF-mediated immune response incubated for 24 hrs by QUANTI-Luc assay; assay type: cell-based
Stimulator of interferon genes protein, sequence (Q86WV6 whole entry): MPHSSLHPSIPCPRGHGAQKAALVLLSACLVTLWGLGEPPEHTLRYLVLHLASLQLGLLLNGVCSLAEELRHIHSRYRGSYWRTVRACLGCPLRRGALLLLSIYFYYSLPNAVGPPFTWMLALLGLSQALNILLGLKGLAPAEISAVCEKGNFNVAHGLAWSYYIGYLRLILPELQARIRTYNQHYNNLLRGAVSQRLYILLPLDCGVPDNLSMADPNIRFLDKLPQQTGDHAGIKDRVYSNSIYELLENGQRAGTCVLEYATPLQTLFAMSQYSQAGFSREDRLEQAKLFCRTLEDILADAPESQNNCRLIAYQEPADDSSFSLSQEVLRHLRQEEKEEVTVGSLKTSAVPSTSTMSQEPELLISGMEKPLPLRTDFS

Q: For `Cc1ccc(C(=O)Nc2nc3cc(C(N)=O)ccc3n2CCCCNC(=O)OC(C)(C)C)c(C)n1`, which viability at 24 h [1] is on record?
A: 112%

Q: What about the viability at 24 h [2] of the same molecule?
A: 93.2%

Q: Which results are given for `Cc1ncccc1C(=O)Nc1nc2cc(C(N)=O)ccc2n1CCCN`?
A: viability at 24 h [1]: 105%; viability at 24 h [2]: 100%

Q: For `CCn1nc(C)cc1C(=O)NCCCCn1c(NC(=O)c2cccnc2C)nc2cc(C(N)=O)ccc21`, which viability at 24 h [1] is on record?
A: 98.5%

Q: And the viability at 24 h [2]?
A: 105%

Q: With `CC(C)(C)OC(=O)NCCCCn1c(NC(=O)c2ccc(C(F)(F)F)nc2)nc2cc(C(N)=O)ccc21` as the molecule, how does the viability at 24 h [1] read?
A: 106%

Q: What about the viability at 24 h [2] of the same molecule?
A: 108%

Q: For `Cc1ncccc1C(=O)Nc1nc2cc(C(N)=O)ccc2n1CCCCNC(=O)OC(C)(C)C`, which viability at 24 h [1] is on record?
A: 99.4%

Q: What about the viability at 24 h [2] of the same molecule?
A: 106%

Q: And the Activity (THP1-Dual)?
A: Non-Toxic

Q: And the Activity (RAW264.7)?
A: Non-Toxic

Q: And the IC50 (Cytochrome P450 1A2)?
A: > 100 µM

Q: And the IC50 (Cytochrome P450 2C9)?
A: 28.3 µM

Q: And the IC50 (Cytochrome P450 2C19)?
A: 8.8 µM

Q: And the IC50 (Cytochrome P450 2D6)?
A: 16.5 µM

Q: And the IC50 (Cytochrome P450 3A4)?
A: 10.5 µM

Q: What about the IC50 [3] of the same molecule?
A: > 100 µM

Q: And the remaining at 0.5 h, 1 µM [4]?
A: 18.1%

Q: What about the remaining at 0.5 h, 1 µM [5] of the same molecule?
A: 27.9%

Q: What about the remaining at 4 h, 5 µM [6] of the same molecule?
A: 99.5%

Q: What about the remaining at 4 h, 5 µM [7] of the same molecule?
A: > 99.9%

Q: What about the fraction unbound [8] of the same molecule?
A: 0.0624

Q: And the fraction unbound [9]?
A: 0.0211

Q: And the half-life [10]?
A: 669 min

Q: What about the half-life [11] of the same molecule?
A: 799 min

Q: What about the Tmax [12] of the same molecule?
A: 25.2 min

Q: What about the Cmax [13] of the same molecule?
A: 110 ng/mL

Q: And the Vd [14]?
A: 11.7 L/kg

Q: What about the clearance [15] of the same molecule?
A: 95.5 mL/min/kg

Q: What about the AUC(0-t) [16] of the same molecule?
A: 880 ng·h/mL

Q: What about the AUC(0-t) [17] of the same molecule?
A: 180 ng·h/mL

Q: What about the AUC(0-inf) [18] of the same molecule?
A: 900 ng·h/mL

Q: And the AUC(0-inf) [19]?
A: 210 ng·h/mL

Q: What about the bioavailability [20] of the same molecule?
A: 5.23%

Q: And the Activity [21]?
A: Non-Toxic

Q: What does the source list for `Cc1ncccc1C(=O)Nc1nc2cc(C(N)=O)ccc2n1CCCCn1c(NC(=O)c2cccnc2C)nc2cc(C(N)=O)ccc21`?
A: EC50 [22]: 18 µM; viability at 24 h [1]: 91%; viability at 24 h [2]: 118%

Q: Which viability at 24 h [1] does the source give for `Cc1cncc(C(=O)Nc2nc3cc(C(N)=O)ccc3n2CCCCNC(=O)OC(C)(C)C)c1` here?
A: 90.7%

Q: What about the viability at 24 h [2] of the same molecule?
A: 97.4%

Q: With `CC(=O)NCCCCn1c(NC(=O)c2cccnc2C)nc2cc(C(N)=O)ccc21` as the molecule, how does the viability at 24 h [1] read?
A: 99.7%

Q: And the viability at 24 h [2]?
A: 97.4%

Q: Which EC50 [22] does the source give for `CC(C)(C)OC(=O)NCCCCn1c(NC(=O)c2cccnc2)nc2cc(C(N)=O)ccc21` here?
A: 42.1 µM

Q: What about the viability at 24 h [1] of the same molecule?
A: 97.4%

Q: And the viability at 24 h [2]?
A: 93.3%

Q: Which viability at 24 h [1] does the source give for `CC(C)(C)OC(=O)NCCCCn1c(NC(=O)c2ccccc2)nc2cc(C(N)=O)ccc21` here?
A: 82.1%

Q: And the viability at 24 h [2]?
A: 101%

Q: With `Cc1ncccc1C(=O)Nc1nc2cc(C(N)=O)ccc2n1CCCCN` as the molecule, how does the viability at 24 h [1] read?
A: 105%

Q: What about the viability at 24 h [2] of the same molecule?
A: 98.5%

Q: For `Cc1ncccc1C(=O)Nc1nc2cc(C(N)=O)ccc2n1CCCNC(=O)OC(C)(C)C`, which viability at 24 h [1] is on record?
A: 102%

Q: What about the viability at 24 h [2] of the same molecule?
A: 93.6%

Q: What does the source list for `COc1cc(C(N)=O)cc2nc(NC(=O)c3cccnc3C)n(C/C=C/CNC(=O)OC(C)(C)C)c12`?
A: viability at 24 h [1]: 106%; viability at 24 h [2]: 97.5%

Q: Which results are given for `CC(C)(C)OC(=O)NCCCCn1c(NC(=O)c2cccnc2C(C)(C)C)nc2cc(C(N)=O)ccc21`?
A: viability at 24 h [1]: 91.6%; viability at 24 h [2]: 106%

Q: Which viability at 24 h [1] does the source give for `Cc1ccc(C(=O)Nc2nc3cc(C(N)=O)ccc3n2CCCCNC(=O)OC(C)(C)C)cn1` here?
A: 89.3%

Q: And the viability at 24 h [2]?
A: 95.3%

Q: What does the source list for `Cc1ncccc1C(=O)Nc1nc2cc(C(N)=O)ccc2n1C`?
A: viability at 24 h [1]: 82.8%; viability at 24 h [2]: 105%
